Experimental data published in patent publication US10167262B2, “Herbicidal substituted 3-arylpyrazoles” (FMC CORPORATION, priority 2014, dated 2019).
Read-outs that look alike come from different tables or passages of the source.

What was measured:
Assay type in all cases: in vivo
[1] = test system: galium (catchweed bedstraw, Galium aparine); assay: Test C pre-/postemergence greenhouse test, plant response rating 0-100; details: Galium; for pest or weed control at 62 g/ha: 62 g ai/ha; for pest or weed control at 125 g/ha: 125 g ai/ha; for pest or weed control at 250 g/ha: 250 g ai/ha; for pest or weed control at 500 g/ha: 500 g ai/ha
Outline: (§1)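 Scores run from 0, no effect, to 100, complete control, assigned by eye after treated plants and controls spent 13 to 15 days in a greenhouse. Soil-applied treatment went onto freshly sown seed in loam and sand; foliar treatment hit seedlings at the 1- to 4-leaf stage.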

[2] = test system: yellow nutsedge (Cyperus esculentus); assay: as above; details: Cyperus; for pest or weed control at 62 g/ha: 62 g ai/ha; for pest or weed control at 125 g/ha: 125 g ai/ha; for pest or weed control at 250 g/ha: 250 g ai/ha; for pest or weed control at 500 g/ha: 500 g ai/ha
Outline: as §1

corn (Zea mays) = assay: as above; details: Zea mays; for Corn plant response rating (crop injury, 0 = no effect, 100 = complete kill) at 250 g/ha: 250 g ai/ha; for Corn plant response rating (crop injury, 0 = no effect, 100 = complete kill) at 500 g/ha: 500 g ai/ha
Outline: as §1

[3] = test system: Italian ryegrass (Lolium multiflorum); assay: as above; details: Lolium multiflorum; for pest or weed control at 62 g/ha: 62 g ai/ha; for pest or weed control at 125 g/ha: 125 g ai/ha; for pest or weed control at 250 g/ha: 250 g ai/ha; for pest or weed control at 500 g/ha: 500 g ai/ha
Outline: as §1

[4] = test system: winter wheat (Triticum aestivum); assay: as above; details: Triticum aestivum; for plant injury at 62 g/ha: 62 g ai/ha; for plant injury at 125 g/ha: 125 g ai/ha; for plant injury at 250 g/ha: 250 g ai/ha; for plant injury at 500 g/ha: 500 g ai/ha
Outline: as §1

soybean (Glycine max) = assay: as above; details: Glycine max; for plant injury at 62 g/ha: 62 g ai/ha; for plant injury at 125 g/ha: 125 g ai/ha; for plant injury at 250 g/ha: 250 g ai/ha; for plant injury at 500 g/ha: 500 g ai/ha
Outline: as §1

[5] = test system: giant foxtail (Setaria faberii); assay: as above; details: Setaria faberi; for pest or weed control at 62 g/ha: 62 g ai/ha; for pest or weed control at 125 g/ha: 125 g ai/ha; for pest or weed control at 250 g/ha: 250 g ai/ha; for pest or weed control at 500 g/ha: 500 g ai/ha
Outline: as §1

[6] = test system: johnsongrass (Sorghum halepense); assay: as above; details: Sorghum halepense; for pest or weed control at 62 g/ha: 62 g ai/ha; for pest or weed control at 125 g/ha: 125 g ai/ha; for pest or weed control at 250 g/ha: 250 g ai/ha; for pest or weed control at 500 g/ha: 500 g ai/ha
Outline: as §1

[7] = test system: lambsquarters (Chenopodium album); assay: as above; details: Chenopodium album; for pest or weed control at 62 g/ha: 62 g ai/ha; for pest or weed control at 125 g/ha: 125 g ai/ha; for pest or weed control at 250 g/ha: 250 g ai/ha; for pest or weed control at 500 g/ha: 500 g ai/ha
Outline: as §1

[8] = test system: pigweed (Amaranthus retroflexus); assay: as above; details: Amaranthus retroflexus; for pest or weed control at 62 g/ha: 62 g ai/ha; for pest or weed control at 125 g/ha: 125 g ai/ha; for pest or weed control at 250 g/ha: 250 g ai/ha; for pest or weed control at 500 g/ha: 500 g ai/ha
Outline: as §1

[9] = test system: chickweed (common chickweed, Stellaria media); assay: Test C postemergence greenhouse test, plant response rating 0-100; details: Stellaria media, post-emergence
Outline: (§2)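 Plants rated visually 0 (no effect) to 100 (complete control) against untreated controls after 13 to 15 days in the greenhouse, dash indicating no result. Treatment was a postemergence application of formulated chemicals at the 1- to 4-leaf stage (2 to 18 cm), in pots of peat-vermiculite medium.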

kochia (Kochia scoparia) = assay: as above; details: Bassia scoparia, post-emergence
Outline: as §2

wild oat (Avena fatua) = assay: as above; details: Avena fatua, post-emergence
Outline: as §2

[10] = post-emergence, Postemergence, read-out: Plant response rating (0 to 100), Galium
[11] = post-emergence, Postemergence, scale 0 to 100
[12] = pre-emergence, Preemergence, read-out: Plant response rating, Galium
[13] = post-emergence, Postemergence, read-out: Plant response rating (0 to 100), Nutsedge, Yellow
[14] = pre-emergence, Preemergence, read-out: Plant response rating, Nutsedge, Yellow
[15] = post-emergence, Postemergence, read-out: Plant response rating (0 to 100), Ryegrass, Italian
[16] = pre-emergence, Preemergence, read-out: Plant response rating, Ryegrass, Italian
[17] = post-emergence, Postemergence, read-out: Plant response rating (0 to 100), Wheat
[18] = pre-emergence, Preemergence, read-out: Plant response rating, Wheat
[19] = post-emergence, Postemergence, read-out: Plant response rating (0 to 100), Soybean
[20] = pre-emergence, Preemergence, read-out: Plant response rating, Soybean
[21] = post-emergence, Postemergence, read-out: Plant response rating (0 to 100), Foxtail, Giant
[22] = pre-emergence, Preemergence, read-out: Plant response rating, Foxtail, Giant
[23] = post-emergence, Postemergence, read-out: Plant response rating (0 to 100), Johnsongrass
[24] = pre-emergence, Preemergence, read-out: Plant response rating, Johnsongrass
[25] = post-emergence, Postemergence, read-out: Plant response rating (0 to 100), Lambsquarters
[26] = pre-emergence, Preemergence, read-out: Plant response rating, Lambsquarters
[27] = post-emergence, Postemergence, read-out: Plant response rating (0 to 100), Pigweed
[28] = pre-emergence, Preemergence, read-out: Plant response rating, Pigweed

Compound: COCC(=O)n1cc(C(=O)c2ccccc2)c(-c2cc(Cl)cc(Cl)c2)n1 [Compound 16, 1-[4-benzoyl-3-(3,5-dichlorophenyl)-1H-pyrazol-1-yl]-2-methoxyethanone]
- pest or weed control at 62 g/ha [1, 10]: 0%
- pest or weed control at 125 g/ha [1, 10]: 20%
- pest or weed control at 250 g/ha [1, 11]: 20%
- pest or weed control at 500 g/ha [1, 11]: 50%
- pest or weed control at 62 g/ha [1, 12]: 0%
- pest or weed control at 125 g/ha [1, 12]: 0%
- pest or weed control at 250 g/ha ([1]; pre-emergence, Preemergence): 0%
- pest or weed control at 500 g/ha ([1]; pre-emergence, Preemergence): 0%
- pest or weed control at 62 g/ha [2, 13]: 0%
- pest or weed control at 125 g/ha [2, 13]: 0%
- pest or weed control at 250 g/ha [2, 11]: 0%
- pest or weed control at 500 g/ha [2, 11]: 5%
- pest or weed control at 62 g/ha [2, 14]: 0%
- pest or weed control at 125 g/ha [2, 14]: 0%
- pest or weed control at 250 g/ha ([2]; pre-emergence, Preemergence): 0%
- pest or weed control at 500 g/ha ([2]; pre-emergence, Preemergence): 0%
- plant injury at 62 g/ha (corn (Zea mays); post-emergence, Postemergence, 62 g ai/ha): 0%
- plant injury at 125 g/ha (corn (Zea mays); post-emergence, Postemergence, 125 g ai/ha): 0%
- Corn plant response rating (crop injury, 0 = no effect, 100 = complete kill) at 250 g/ha (corn (Zea mays); [11]): 0%
- Corn plant response rating (crop injury, 0 = no effect, 100 = complete kill) at 500 g/ha (corn (Zea mays); [11]): 0%
- Corn plant response rating (crop injury, 0 = no effect, 100 = complete kill) at 62 g/ha (corn (Zea mays); pre-emergence, Preemergence, 62 g ai/ha): 0%
- Corn plant response rating (crop injury, 0 = no effect, 100 = complete kill) at 125 g/ha (corn (Zea mays); pre-emergence, Preemergence, 125 g ai/ha): 0%
- Corn plant response rating (crop injury, 0 = no effect, 100 = complete kill) at 250 g/ha (corn (Zea mays); pre-emergence, Preemergence): 0%
- Corn plant response rating (crop injury, 0 = no effect, 100 = complete kill) at 500 g/ha (corn (Zea mays); pre-emergence, Preemergence): 0%
- pest or weed control at 62 g/ha [3, 15]: 0%
- pest or weed control at 125 g/ha [3, 15]: 0%
- pest or weed control at 250 g/ha [3, 11]: 0%
- pest or weed control at 500 g/ha [3, 11]: 0%
- pest or weed control at 62 g/ha [3, 16]: 0%
- pest or weed control at 125 g/ha [3, 16]: 0%
- pest or weed control at 250 g/ha ([3]; pre-emergence, Preemergence): 0%
- pest or weed control at 500 g/ha ([3]; pre-emergence, Preemergence): 0%
- plant injury at 62 g/ha [4, 17]: 0%
- plant injury at 125 g/ha [4, 17]: 0%
- plant injury at 250 g/ha [4, 11]: 0%
- plant injury at 500 g/ha [4, 11]: 0%
- plant injury at 62 g/ha [4, 18]: 0%
- plant injury at 125 g/ha [4, 18]: 0%
- plant injury at 250 g/ha ([4]; pre-emergence, Preemergence): 0%
- plant injury at 500 g/ha ([4]; pre-emergence, Preemergence): 0%
- plant injury at 62 g/ha (soybean (Glycine max); [19]): 0%
- plant injury at 125 g/ha (soybean (Glycine max); [19]): 0%
- plant injury at 250 g/ha (soybean (Glycine max); [11]): 0%
- plant injury at 500 g/ha (soybean (Glycine max); [11]): 0%
- plant injury at 62 g/ha (soybean (Glycine max); [20]): 0%
- plant injury at 125 g/ha (soybean (Glycine max); [20]): 0%
- plant injury at 250 g/ha (soybean (Glycine max); pre-emergence, Preemergence): 0%
- plant injury at 500 g/ha (soybean (Glycine max); pre-emergence, Preemergence): 0%
- pest or weed control at 62 g/ha [5, 21]: 0%
- pest or weed control at 125 g/ha [5, 21]: 0%
- pest or weed control at 250 g/ha [5, 11]: 0%
- pest or weed control at 500 g/ha [5, 11]: 10%
- pest or weed control at 62 g/ha [5, 22]: 0%
- pest or weed control at 125 g/ha [5, 22]: 0%
- pest or weed control at 250 g/ha ([5]; pre-emergence, Preemergence): 0%
- pest or weed control at 500 g/ha ([5]; pre-emergence, Preemergence): 0%
- pest or weed control at 62 g/ha [6, 23]: 0%
- pest or weed control at 125 g/ha [6, 23]: 0%
- pest or weed control at 250 g/ha [6, 11]: 0%
- pest or weed control at 500 g/ha [6, 11]: 0%
- pest or weed control at 62 g/ha [6, 24]: 0%
- pest or weed control at 125 g/ha [6, 24]: 0%
- pest or weed control at 250 g/ha ([6]; pre-emergence, Preemergence): 0%
- pest or weed control at 500 g/ha ([6]; pre-emergence, Preemergence): 0%
- pest or weed control at 62 g/ha [7, 25]: 70%
- pest or weed control at 125 g/ha [7, 25]: 75%
- pest or weed control at 250 g/ha [7, 11]: 75%
- pest or weed control at 500 g/ha [7, 11]: 75%
- pest or weed control at 62 g/ha [7, 26]: 100%
- pest or weed control at 125 g/ha [7, 26]: 100%
- pest or weed control at 250 g/ha ([7]; pre-emergence, Preemergence): 100%
- pest or weed control at 500 g/ha ([7]; pre-emergence, Preemergence): 100%
- pest or weed control at 62 g/ha [8, 27]: 85%
- pest or weed control at 125 g/ha [8, 27]: 85%
- pest or weed control at 250 g/ha [8, 11]: 100%
- pest or weed control at 500 g/ha [8, 11]: 100%
- pest or weed control at 62 g/ha [8, 28]: 85%
- pest or weed control at 125 g/ha [8, 28]: 85%
- pest or weed control at 250 g/ha ([8]; pre-emergence, Preemergence): 100%
- pest or weed control at 500 g/ha ([8]; pre-emergence, Preemergence): 100%
- pest or weed control at 62 g/ha ([9]; 62 g ai/ha): 95%
- pest or weed control at 125 g/ha ([9]; 125 g ai/ha): 100%
- pest or weed control at 250 g/ha ([9]; 250 g ai/ha, scale 0 to 100): 100%
- pest or weed control at 500 g/ha ([9]; 500 g ai/ha, scale 0 to 100): 100%
- pest or weed control at 62 g/ha (kochia (Kochia scoparia); 62 g ai/ha): 80%
- pest or weed control at 125 g/ha (kochia (Kochia scoparia); 125 g ai/ha): 85%
- pest or weed control at 250 g/ha (kochia (Kochia scoparia); 250 g ai/ha, scale 0 to 100): 90%
- pest or weed control at 500 g/ha (kochia (Kochia scoparia); 500 g ai/ha, scale 0 to 100): 90%
- pest or weed control at 62 g/ha (wild oat (Avena fatua); 62 g ai/ha): 0%
- pest or weed control at 125 g/ha (wild oat (Avena fatua); 125 g ai/ha): 0%
- pest or weed control at 250 g/ha (wild oat (Avena fatua); 250 g ai/ha, scale 0 to 100): 0%
- pest or weed control at 500 g/ha (wild oat (Avena fatua); 500 g ai/ha, scale 0 to 100): 0%
